In US20200055839A1 (priority 2017, published 2020):

Tested on: NL-RLuc virus
Test: Inhibition of HIV replication (NL-RLuc virus, luciferase readout in MT-2 cells)
Format: cell-based
Settings: Human immunodeficiency virus 1, MT2, 120 h, MT-2 cells infected with NL-RLuc virus, 5 days of incubation, 10% FBS, at least 2 experiments
Method in brief: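 EC50 derived via median effect equation from at least 2 experiments, using luciferase expression as virus-growth readout. Replication-competent NL-RLuc reporter virus (nef partly replaced by Renilla luciferase) infected MT-2 cells with serial compound dilutions; 5-day incubation in RPMI 1640 plus 10% FBS.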

How did the EC50 turn out when `Cc1nc(NC2CCN(S(C)(=O)=O)CC2)c(-c2ccc(OCCc3ccc(F)cc3)cc2)c(N2CCC(C)(C)CC2)c1[C@H](OC(C)(C)C)C(=O)O` [Example 99, (S)-2-(tert-Butoxy)-2-(4-(4,4-dimethylpiperidin-1-yl)-5-(4-(4-fluorophenethoxy)phenyl)-2-methyl-6-((1-(methylsulfonyl)piperidin-4-yl)amino)pyridin-3-yl)acetic acid] was run?
Its EC50 is 0.6 nM.

For `CC(=O)N1CCC(Nc2nc(C)c([C@H](OC(C)(C)C)C(=O)O)c(N3CCC(C)(C)CC3)c2-c2ccc(OCCc3ccc(F)cc3)cc2)CC1` [Example 100, (S)-2-(6-((1-Acetylpiperidin-4-yl)amino)-4-(4,4-dimethylpiperidin-1-yl)-5-(4-(4-fluorophenethoxy)phenyl)-2-methylpyridin-3-yl)-2-(tert-butoxy)acetic acid], which EC50 is on record?
The EC50 was 0.5 nM.

With `Cc1nc(Nc2ccc(C(=O)O)cn2)c(-c2ccc(OCCc3ccc(F)cc3)cc2)c(N2CCC(C)(C)CC2)c1[C@H](OC(C)(C)C)C(=O)O` [Example 101, (S)-6-((5-(tert-Butoxy(carboxy)methyl)-4-(4,4-dimethylpiperidin-1-yl)-3-(4-(4-fluorophenethoxy)phenyl)-6-methylpyridin-2-yl)amino)nicotinic acid] as the molecule, how does the EC50 read?
Its EC50 is 10 nM.

`Cc1nc(Nc2ccnc(C(=O)O)c2)c(-c2ccc(OCCc3ccc(F)cc3)cc2)c(N2CCC(C)(C)CC2)c1[C@H](OC(C)(C)C)C(=O)O` [Example 102, (S)-4-((5-(tert-Butoxy(carboxy)methyl)-4-(4,4-dimethylpiperidin-1-yl)-3-(4-(4-fluorophenethoxy)phenyl)-6-methylpyridin-2-yl)amino)picolinic acid] was tested. Which EC50 did it give?
Its EC50 is 50 nM.

Which EC50 does the source give for `Cc1nc(OCCO)c(-c2ccc(OCCc3ccc(F)cc3)cc2)c(N2CCC(C)(C)CC2)c1[C@H](OC(C)(C)C)C(=O)O` [Example 103, (S)-2-(tert-Butoxy)-2-(4-(4,4-dimethylpiperidin-1-yl)-5-(4-(4-fluorophenethoxy)phenyl)-6-(2-hydroxyethoxy)-2-methylpyridin-3-yl)acetic acid] here?
The EC50 was 2 nM.

`Cc1nc(Nc2ccncc2)c(-c2ccc(OCCc3ccc(F)cc3)c(F)c2)c(N2CCC(C)(C)CC2)c1[C@H](OC(C)(C)C)C(=O)O` [Example 104, (S)-2-(tert-Butoxy)-2-(4-(4,4-dimethylpiperidin-1-yl)-5-(3-fluoro-4-(4-fluorophenethoxy)phenyl)-2-methyl-6-(pyridin-4-ylamino)pyridin-3-yl)acetic acid] was tested. Which EC50 did it give?
Its EC50 is 0.7 nM.

Which EC50 does the source give for `Cc1nc(Nc2ncccn2)c(-c2ccc(OCCc3ccc(F)cc3)c(F)c2)c(N2CCC(C)(C)CC2)c1[C@H](OC(C)(C)C)C(=O)O` [Example 105, (S)-2-(tert-Butoxy)-2-(4-(4,4-dimethylpiperidin-1-yl)-5-(3-fluoro-4-(4-fluorophenethoxy)phenyl)-2-methyl-6-(pyrimidin-2-ylamino)pyridin-3-yl)acetic acid] here?
Its EC50 is 4 nM.

For `Cc1nc(NC2CC2)c(-c2ccc(OCCc3ccc(F)cc3)cc2)c(N2CCC(C)(C)CC2)c1[C@H](OC(C)(C)C)C(=O)O` [Example 106, (S)-2-(tert-Butoxy)-2-(6-(cyclopropylamino)-4-(4,4-dimethylpiperidin-1-yl)-5-(4-(4-fluorophenethoxy)phenyl)-2-methylpyridin-3-yl)acetic acid], which EC50 is on record?
The EC50 was 1 nM.

How did the EC50 turn out when `CNc1nc(C)c([C@H](OC(C)(C)C)C(=O)O)c(N2CCC(C)(C)CC2)c1-c1ccc(OCCc2ccc(F)cc2)c(F)c1` [Example 108, (S)-2-(tert-Butoxy)-2-(4-(4,4-dimethylpiperidin-1-yl)-5-(3-fluoro-4-(4-fluorophenethoxy)phenyl)-2-methyl-6-(methylamino)pyridin-3-yl)acetic acid] was run?
The EC50 was 3 nM.

How did the EC50 turn out when `Cc1nc(Nc2ccc(C#N)cn2)c(-c2ccc(OCCc3ccc(F)cc3)cc2)c(N2CCC(C)(C)CC2)c1[C@H](OC(C)(C)C)C(=O)O` [Example 109, (S)-2-(tert-Butoxy)-2-(6-((5-cyanopyridin-2-yl)amino)-4-(4,4-dimethylpiperidin-1-yl)-5-(4-(4-fluorophenethoxy)phenyl)-2-methylpyridin-3-yl)acetic acid] was run?
Its EC50 is 13 nM.

With `Cc1ncc(-c2ccc(NCCc3ccc(F)cc3)nc2)c(N2CCC(C)(C)CC2)c1[C@H](OC(C)(C)C)C(=O)O` [Example 110, (S)-2-(tert-Butoxy)-2-(4-(4,4-dimethylpiperidin-1-yl)-6′-((4-fluorophenethyl)amino)-6-methyl-[3, 3′-bipyridin]-5-yl)acetic acid] as the molecule, how does the EC50 read?
The EC50 was 2 nM.

`Cc1ncc(-c2ccc(N(C)C)nc2)c(N2CCC(C)(C)CC2)c1[C@H](OC(C)(C)C)C(=O)O` [Example 111, (S)-2-(tert-Butoxy)-2-(6′-(dimethylamino)-4-(4,4-dimethylpiperidin-1-yl)-6-methyl-[3, 3′-bipyridin]-5-yl)acetic acid] was tested. Which EC50 did it give?
Its EC50 is 2 nM.

How did the EC50 turn out when `CCOc1ccc(-c2cnc(C)c([C@H](OC(C)(C)C)C(=O)O)c2N2CCC(C)(C)CC2)cn1` [Example 112, (S)-2-(tert-Butoxy)-2-(4-(4,4-dimethylpiperidin-1-yl)-6′-ethoxy-6-methyl-[3, 3′-bipyridin]-5-yl)acetic acid] was run?
The EC50 was 5 nM.

For `Cc1nc(N)c(-c2cnc(NCCc3ccc(F)cc3)c(F)c2)c(N2CCC(C)(C)CC2)c1[C@H](OC(C)(C)C)C(=O)O` [Example 113, (S)-2-(2-Amino-4-(4,4-dimethylpiperidin-1-yl)-5′-fluoro-6′-((4-fluorophenethyl)amino)-6-methyl-[3, 3′-bipyridin]-5-yl)-2-(tert-butoxy)acetic acid], which EC50 is on record?
The EC50 was 3 nM.

With `Cc1ncc(-c2cnc(N(C)C)c(F)c2)c(N2CCC(C)(C)CC2)c1[C@H](OC(C)(C)C)C(=O)O` [Example 114, (S)-2-(tert-Butoxy)-2-(6′-(dimethylamino)-4-(4,4-dimethylpiperidin-1-yl)-5′-fluoro-6-methyl-[3,3′-bipyridin]-5-yl)acetic acid] as the molecule, how does the EC50 read?
Its EC50 is 24 nM.

`Cc1nc(N)c(-c2cnc(OCCc3ccc(F)cc3)c(F)c2)c(N2CCC(C)(C)CC2)c1[C@H](OC(C)(C)C)C(=O)O` [Example 115, (S)-2-(2-Amino-4-(4,4-dimethylpiperidin-1-yl)-5′-fluoro-6′-(4-fluorophenethoxy)-6-methyl-[3, 3′-bipyridin]-5-yl)-2-(tert-butoxy)acetic acid] was tested. Which EC50 did it give?
The EC50 was 1 nM.

`Cc1nc(N)c(-c2cnc(OCCc3cccc(F)c3)c(F)c2)c(N2CCC(C)(C)CC2)c1[C@H](OC(C)(C)C)C(=O)O` [Example 116, (S)-2-(2-Amino-4-(4,4-dimethylpiperidin-1-yl)-5′-fluoro-6′-(3-fluorophenethoxy)-6-methyl-[3, 3′-bipyridin]-5-yl)-2-(tert-butoxy)acetic acid] was tested. Which EC50 did it give?
The EC50 was 1 nM.

How did the EC50 turn out when `Cc1nc(N)c(-c2cnc(OCCc3ccccc3F)c(F)c2)c(N2CCC(C)(C)CC2)c1[C@H](OC(C)(C)C)C(=O)O` [Example 117, (S)-2-(2-Amino-4-(4,4-dimethylpiperidin-1-yl)-5′-fluoro-6′-(2-fluorophenethoxy)-6-methyl-[3, 3′-bipyridin]-5-yl)-2-(tert-butoxy)acetic acid] was run?
Its EC50 is 1 nM.

`Cc1ncc(-c2cnc(OCCc3ccc(F)cc3)c(F)c2)c(N2CCC(C)(C)CC2)c1[C@H](OC(C)(C)C)C(=O)O` [Example 118, (S)-2-(tert-Butoxy)-2-(4-(4,4-dimethylpiperidin-1-yl)-5′-fluoro-6′-(4-fluorophenethoxy)-6-methyl-[3, 3′-bipyridin]-5-yl)acetic acid] was tested. Which EC50 did it give?
The EC50 was 1 nM.

With `Cc1ncc(-c2cnc(OCCc3cccc(F)c3)c(F)c2)c(N2CCC(C)(C)CC2)c1[C@H](OC(C)(C)C)C(=O)O` [Example 119, (S)-2-(tert-Butoxy)-2-(4-(4,4-dimethylpiperidin-1-yl)-5′-fluoro-6′-(3-fluorophenethoxy)-6-methyl-[3, 3′-bipyridin]-5-yl)acetic acid] as the molecule, how does the EC50 read?
Its EC50 is 1 nM.

For `Cc1ncc(-c2cnc(OCCc3ccccc3F)c(F)c2)c(N2CCC(C)(C)CC2)c1[C@H](OC(C)(C)C)C(=O)O` [Example 120, (S)-2-(tert-Butoxy)-2-(4-(4,4-dimethylpiperidin-1-yl)-5′-fluoro-6′-(2-fluorophenethoxy)-6-methyl-[3, 3′-bipyridin]-5-yl)acetic acid], which EC50 is on record?
The EC50 was 2 nM.

With `Cc1ncc(-c2ccc(OCCc3ccc(F)cc3)c(F)c2)c(N2CCC(C)(C)CC2)c1[C@H](OC(C)(C)C)C(=O)O` [Example 122, (S)-2-(tert-Butoxy)-2-(4-(4,4-dimethylpiperidin-1-yl)-5-(3-fluoro-4-(4-fluorophenethoxy)phenyl)-2-methylpyridin-3-yl)acetic acid] as the molecule, how does the EC50 read?
The EC50 was 1 nM.

For `Cc1ncc(-c2ccc(OCCc3ccc(F)cc3)cc2F)c(N2CCC(C)(C)CC2)c1[C@H](OC(C)(C)C)C(=O)O` [Example 123, (S)-2-(tert-Butoxy)-2-(4-(4,4-dimethylpiperidin-1-yl)-5-(2-fluoro-4-(4-fluorophenethoxy)phenyl)-2-methylpyridin-3-yl)acetic acid], which EC50 is on record?
Its EC50 is 2 nM.

For `Cc1ncc(-c2ccc(OCCc3ccc(F)cc3)c(F)c2F)c(N2CCC(C)(C)CC2)c1[C@H](OC(C)(C)C)C(=O)O` [Example 124, (S)-2-(tert-Butoxy)-2-(5-(2,3-difluoro-4-(4-fluorophenethoxy)phenyl)-4-(4,4-dimethylpiperidin-1-yl)-2-methylpyridin-3-yl)acetic acid], which EC50 is on record?
The EC50 was 2 nM.

`Cc1ncc(-c2cc(F)c(OCCc3ccc(F)cc3)cc2F)c(N2CCC(C)(C)CC2)c1[C@H](OC(C)(C)C)C(=O)O` [Example 125, (2S)-2-(tert-Butoxy)-2-(5-{2,5-difluoro-4-[2-(4-fluorophenyl)ethoxy]phenyl}-4-(4,4-dimethylpiperidin-1-yl)-2-methylpyridin-3-yl)acetic acid] was tested. Which EC50 did it give?
Its EC50 is 3 nM.

Same assay, conditions: MT-2 cells infected with NL-RLuc virus, 5 days of incubation, 10% FBS, at least 2 experiments

Which EC50 does the source give for `Cc1ncc(-c2cnc(NCCc3ccc(F)cc3)c(F)c2)c(N2CCC(C)(C)CC2)c1[C@H](OC(C)(C)C)C(=O)O` [Example 121, (S)-2-(tert-Butoxy)-2-(4-(4,4-dimethylpiperidin-1-yl)-5′-fluoro-6′-((4-fluorophenethyl)amino)-6-methyl-[3, 3′-bipyridin]-5-yl)acetic acid] here?
The EC50 was 2 nM.
